Ten compounds from patent US10738093B2, “Discovery of cationic nonribosomal peptides as Gram-negative antibiotics through global genome mining” (The Hong Kong University of Science and Technology, priority 2018, dated 2020) can be followed below.

The subject of assay [1] is Escherichia coli ATCC 25922. In words: microbe, parasite or virus in culture. In kind it is cell-based. How it is done: (§1) Minimum inhibitory concentration (MIC) was determined by broth microdilution according to CLSI guidelines. The test medium for most species was Mueller-Hinton broth (MHB). Bacteria were grown overnight to early stationary phase and adjusted in MHB to 5.0×10^5 colony-forming units per mL (c.f.u./mL) in the wells of 96-well microtiter plates, mixed with varying concentrations of test compounds and incubated at 37° C. for 24 h. […] MHBs containing 10% fetal bovine serum (Gibco), 21 mM MgCl, or 1.0 mg/ml LPS (lipopolysaccharides from Escherichia coli O55:B5, Sigma-Aldrich) were used to test their inhibitory effects.

Assay [2] relates to Saccharomyces cerevisiae VL-48. The assay can be described thus: MIC, Saccharomyces cerevisiae. In kind it is cell-based. The following applies: for MIC Sc: Table 2, Saccharomyces cerevisiae VL-48. The method, then: as §1
Assay [3] concerns Pseudomonas aeruginosa PAO1. In kind it is cell-based. The method, then: as §1
The next assay has as its system Bacillus subtilis 168. It counts as cell-based. The following applies: for MIC Bs: Table 2, B. subtilis 168. How it is done:
as §1

Assay [4] deals with Enterobacter cloacae NRRL-B-413. In kind it is cell-based. As to conditions: Enterobacter cloacae NRRL-B-413; for MIC En: Table 2. How it is done:
as §1

The test system of assay [5] is Methicillin-resistant Staphylococcus aureus ATCC 43300. It counts as cell-based. As to conditions: for MIC MRSA: Table 2, Methicillin-resistant Staphylococcus aureus ATCC 43300. How it is done: as §1
The next assay deals with Candida albicans. It counts as cell-based. The following applies: Candida albicans; for MIC Ca: Table 2. The method, then: as §1
The next assay concerns Acinetobacter baumannii. It counts as cell-based. As to conditions: Acinetobacter baumannii; for MIC Ab: Table 2. How it is done: as §1
Assay [6] deals with Escherichia coli ATCC 25922. In words: Resistance acquisition during serial passaging. The following applies: serial passaging at subinhibitory concentrations over 30 days. It counts as cell-based. How it is done:
Escherichia coli ATCC 25922 was inoculated into MHB overnight at 37° C. with continuous shaking. Cells were diluted 10,000 times in MHB to about 1×10^6 c.f.u./mL. […] Plates with bacteria were incubated at 37° C. without shaking. […] This process was repeated for 30 d, and the final MIC was confirmed by the same antibacterial assay described above. The experiment was performed in quadruplicate, and on each day, the sample that developed the highest resistance was measured to plot the curve.

The subject of assay [7] is Colistin-resistant E. coli (E. coli ATCC 25922 carrying mcr-1). In kind it is cell-based, Escherichia coli. The method, then: as §1
Assay [8] relates to E. coli Top10. In kind it is cell-based, Escherichia coli. The following applies: E. coli Top10. The method, then: as §1
Assay [9] deals with K. pneumoniae NRRL-B-3521. In kind it is cell-based, Klebsiella pneumoniae. As to conditions: K. pneumoniae NRRL-B-3521. The method, then:
as §1

The nature of assay [10]: LPS binding by isothermal titration calorimetry. Details: species or system Escherichia coli. The following applies: ITC, FIGS. 18a-18b. The method, then: Microcalorimetric experiments of peptide binding to LPS were performed on an MCS isothermal titration calorimeter (ITC) (Microcal, Northampton, Mass.) at 37° C. LPS was prepared as a 50 μM aqueous suspension in 20 mM HEPES (pH 7.0) buffer by suspension, sonication and temperature cycling between 5° C. and 70° C. This suspension was stored at 4° C. overnight prior to use. 100 μM peptide solutions (brevicidine and polymyxin B) were prepared in the same buffer and all solutions were degassed prior to use by stirring under vacuum for 5 min at 37° C. After thermal equilibration, 5 μL aliquots of the peptide solution were added every 3 min into the lipid-containing cell at 37° C. and stirred constantly. The change in heat during the titration steps was registered in real time and raw data were processed using the Origin® 7 software provided with the instrument. In control experiments, the corresponding peptide solution (or LPS solution) was injected into the buffer without LPS (or without peptide).

For the next assay, the system named is E. cloacae NRRL-B-425. In kind it is cell-based, Enterobacter cloacae. The following applies: E. cloacae NRRL-B-425. The method, then:
as §1

In assay [11] the test system is Klebsiella pneumoniae NRRL-B-408. In kind it is cell-based. The following applies: Klebsiella pneumoniae NRRL-B-408. The method, then: as §1
The test system of assay [12] is E. coli Top10. The assay can be described thus: Time-kill assay. It counts as cell-based, Escherichia coli. The following applies: 10 times the MIC. The method, then:
An overnight culture of E. coli Top10 or Pseudomonas aeruginosa PAO1 cells was diluted 1:10,000 in MHB and incubated at 37° C. with agitation at 180 rpm for 2 h (early exponential). The bacteria were then challenged with antibiotics at 10×MIC, brevicidine (20 μg/ml), laterocidine (20 μg/ml) or polymyxin B (10 μg/ml) at room temperature without shaking. An untreated sample of cells was used as a negative control. At intervals, 10 μL aliquots were removed, centrifuged at 10,000 g for 1 min and resuspended in 1.0 mL of sterile PBS. Tenfold-serially-diluted suspensions were plated on MHB agar plates and incubated at 37° C. overnight. Colonies were counted and the number of c.fu. per mL was calculated. For analysis of lysis, 300 μL of culture (OD600=1.0) were treated with 10×MIC of antibiotics for 24 h. Experiments were performed in triplicate.

Setting [13] is: Table 2, Escherichia coli ATCC 25922.
[14] abbreviates: Table 2, Pseudomonas aeruginosa PAO1.
Setting [15] is: E. coli ATCC 25922 + LPS (1.0 mg L^−1).
Setting [16] is: E. coli ATCC 25922 + Mg^2+ (21 mM).

≈ marks a conversion by molar mass, not a printed value. Read-outs that look alike come from different tables or passages of the source. Positions of bridges follow the written chain, without caps; N, C: chain ends. Non-standard residues stand in square brackets, D forms with d. Residues, ends and D or L forms follow the SMILES beside them. *: point of attachment. Octanoyl(7-Me) = CC(C)CCCCCC(=O)*; dOrn = NCCC[C@@H](N)C(=O)O; Orn = NCCC[C@H](N)C(=O)O

Consider `CC[C@H](C)[C@@H]1NC(=O)[C@@H](NC(=O)[C@@H](N)Cc2c[nH]c3ccccc23)[C@@H](C)OC(=O)[C@@H](CO)NC(=O)CNC1=O` [Compound 4] (H-WTIG[dS]; ester 2-C), for which the “MIC Ec” value in assay [1] (setting [13]) is listed as “ND (ND >64 μg/ml)”. In assay [2], the “MIC Sc” value is recorded as “ND (ND >64 μg/ml)”. Also, the “MIC Pa” value in assay [3] (setting [14]) was “ND (ND >64 μg/ml)”. Further, in the assay with Bacillus subtilis 168, the “MIC Bs” value is listed as “ND (ND >64 μg/ml)”. In addition, the “MIC En” value in [4] is recorded as “ND (ND >64 μg/ml)”. The “MIC MRSA” value in [5] was “ND (ND >64 μg/ml)”. In addition, in the assay with Candida albicans, the “MIC Ca” value is listed as “ND (ND >64 μg/ml)”. The “MIC Ab” value with Acinetobacter baumannii is listed as “ND (ND >64 μg/ml)”.

In the case of `NCCC[C@H](N)C(=O)NCC(=O)N[C@H](CCCN)C(=O)O` [Compound 7] (H-[Orn]-Gly-[dOrn]-OH), the “MIC Ec” value in [1] (setting [13]) was “ND (ND >64 μg/ml)”. The “MIC Pa” value in [3] (setting [14]) is given as “ND (ND >64 μg/ml)”. Besides, the “MIC Bs” value in the assay on Bacillus subtilis 168 is “ND (ND >64 μg/ml)”. Besides, in [5], the “MIC MRSA” value is “ND (ND >64 μg/ml)”.

As to `CC[C@H](C)[C@@H]1NC(=O)[C@@H](NC(=O)[C@@H](N)Cc2c[nH]c3ccccc23)[C@@H](C)OC(=O)CNC(=O)CNC(=O)[C@H](CC(N)=O)NC1=O` [Compound 8] (H-WTINGG; ester 2-C), in assay [1] (setting [13]), the “MIC Ec” value is listed as “ND (ND >64 μg/ml)”. Moreover, the “MIC Pa” value in [3] (setting [14]) is “ND (ND >64 μg/ml)”. In addition, the “MIC Bs” value against Bacillus subtilis 168 was “ND (ND >64 μg/ml)”. Also, in [5], the “MIC MRSA” value is “ND (ND >64 μg/ml)”.

Turning to `CC(C)CCCCCC(=O)N[C@H](CO)C(=O)N[C@H](Cc1ccc(O)cc1)C(=O)N[C@H](Cc1c[nH]c2ccccc12)C(=O)N[C@H](CCCN)C(=O)N[C@@H](CCCN)C(=O)NCC(=O)N[C@H](CCCN)C(=O)O` [Compound 9] ({Octanoyl(7-Me)}-[dS][dY][dW][dOrn][Orn]G[dOrn]-OH), the “MIC Ec” value in assay [1] (setting [13]) is “ND (ND >64 μg/ml)”. For the same compound, the “MIC Pa” value in assay [3] (setting [14]) is “ND (ND >64 μg/ml)”. Besides, the “MIC Bs” value with Bacillus subtilis 168 is listed as “ND (ND >64 μg/ml)”. In addition, in [5], the “MIC MRSA” value is “ND (ND >64 μg/ml)”.

For `CC(C)CCCCCC(=O)N[C@H](CO)C(=O)N[C@H](Cc1ccc(O)cc1)C(=O)N[C@H](Cc1c[nH]c2ccccc12)C(=O)N[C@H](CCCN)C(=O)O` [Compound 10] ({Octanoyl(7-Me)}-[dS][dY][dW][dOrn]-OH), the “MIC Ec” value in [1] (setting [13]) is “ND (ND >64 μg/ml)”. For the same compound, the “MIC Pa” value in [3] (setting [14]) is recorded as “ND (ND >64 μg/ml)”. Besides, in the assay with Bacillus subtilis 168, the “MIC Bs” value is recorded as “ND (ND >64 μg/ml)”. In assay [5], the “MIC MRSA” value is given as “ND (ND >64 μg/ml)”.

On to `CC[C@H](C)[C@H](NC(=O)[C@@H](NC(=O)[C@H](Cc1c[nH]c2ccccc12)NC(=O)[C@@H](CCCN)NC(=O)CNC(=O)[C@@H](CCCN)NC(=O)[C@@H](CCCN)NC(=O)[C@@H](Cc1c[nH]c2ccccc12)NC(=O)[C@@H](Cc1ccc(O)cc1)NC(=O)[C@@H](CO)NC(=O)CCCCCC(C)C)[C@@H](C)O)C(=O)N[C@@H](CC(N)=O)C(=O)NCC(=O)NCC(=O)O` [Compound 11] ({Octanoyl(7-Me)}-[dS][dY][dW][dOrn][dOrn]G[dOrn]WTINGG-OH), for which the “MIC Ec” value in [1] (ATCC 25922) worked out at 16 µg/mL (≈ 9.86 µM). In [3] (PAO1), the “MIC Pa” value was found to be 8 µg/mL (≈ 4.93 µM). For the same compound, the “MIC Bs” value against Bacillus subtilis 168 is reported as “ND (ND >64 μg/ml)”. Moreover, the “MIC MRSA” value in assay [5] was “ND (ND >64 μg/ml)”.

For `C[C@H]1COc2c(N3CCN(C)CC3)c(F)cc3c(=O)c(C(=O)O)cn1c23` [Levofloxacin, reference compound], the MIC in assay [1] (Escherichia coli, ATCC25922, positive control of the mouse thigh study, read-out: MIC) turned out to be 0.032 µg/mL (≈ 0.0886 µM).

With `O=C(O)c1cn(C2CC2)c2cc(N3CCNCC3)c(F)cc2c1=O` [ciprofloxacin, reference compound], the development of resistance result in assay [6] was “rapidly developed resistance”.

Turning to colistin [reference compound], the MIC in assay [1] (E. coli ATCC 25922 + 10% serum) is 2 to 4 µg/mL; in [1] (setting [15]), >64 µg/mL; in [1] (setting [16]) it was >64 µg/mL; in [1] (Escherichia coli ATCC 25922), 2 µg/mL; in [7], 16 µg/mL; in the assay on E. coli Top10 [8], 2 µg/mL. The same compound showed an MIC in [3] (Pseudomonas aeruginosa PAO1) of 1 µg/mL.

Regarding polymyxin B [reference compound], the MIC in [9] was 2 µg/mL; in assay [1] (E. coli ATCC 25922 + 10% serum), 1 to 2 µg/mL; in assay [1] (setting [15]), >64 µg/mL; in assay [1] (setting [16]), >64 µg/mL; in assay [1] (Escherichia coli ATCC 25922) it was 1 µg/mL; in assay [7] it was 16 µg/mL. The MIC against E. coli Top10 [8] was 2 µg/mL; in the assay on E. cloacae NRRL-B-425, 64 µg/mL; in assay [2] (Saccharomyces cerevisiae) it was >64 µg/mL; in assay [3] (Pseudomonas aeruginosa PAO1), 1 µg/mL; in assay [11] it was 16 µg/mL; with Bacillus subtilis 168 (Bacillus subtilis 168), 4 µg/mL. For the same compound, the MIC was 8 µg/mL in assay [4], 32 µg/mL in [5] (Staphylococcus aureus (MRSA)), >64 µg/mL with Candida albicans and 4 µg/mL against Acinetobacter baumannii. In addition, the “MIC Ec” value in assay [1] (setting [13]) came out at 1 µg/mL. Besides, the “binding to LPS” value in [10] is “strong binding to LPS”. Moreover, in assay [2], the “MIC Sc” value is recorded as “ND (ND >64 μg/ml)”. Moreover, the “MIC Pa” value in [3] (setting [14]) amounted to 1 µg/mL. Besides, the “MIC Bs” value with Bacillus subtilis 168 worked out at 4 µg/mL. In addition, the “MIC En” value in [4] came to 8 µg/mL. Also, the “MIC MRSA” value in assay [5] is 32 µg/mL. For the same compound, the “MIC Ca” value in the assay with Candida albicans was “ND (ND >64 μg/ml)”. In addition, the “MIC Ab” value in the assay with Acinetobacter baumannii amounted to 4 µg/mL. Further, the “time of exposure to significant reduction of viable cells” value in the assay with E. coli Top10 [12] was 5 min. Further, the “time to killing all cells” value in the assay on E. coli Top10 [12] is listed as ≤ 30 min.
